Data set [1] relates to CDK4. In words: pCDK4 Thr172 immunofluorescence and remodeling in primary cardiomyocytes. The data set is classed as cell-based. An excerpt:
Post treatment, the cells were washed, fixed, and were subjected to sequential staining of primary antibodies a Actinin and phospho-CDK4 (Thr172). The images were acquired using the Zeiss AxioVision SE64 Imaging software and analyzed using the ImageJ2 software.
Immunofluorescence was used to detect α-actinin, pCDK4 Thr172, and nuclei were stained with DAPI. […] The nuclear fluorescent intensity of pCDK4 Thr172 using the ImageJ software. The data are represented as Mean±Standard deviation.

Data set [2] deals with neonatal rat ventricular cardiomyocytes. Nature of the data set: Calcium transients (Fura2-AM) in neonatal rat ventricular cardiomyocytes. The data set is classed as cell-based. To be noted: for contractility / contractile function: inferred from peak calcium transient, AUC and time to peak. The procedure: Method: Freshly isolated wildtype neonatal rat ventricular cardiomyocytes were plated onto laminin coated glass coverslides, rinsed once and then loaded with 1 μM Fura2-AM (Life Technologies) for 15 min at 37 °C. After washing the cells thrice with Tyrode solution, measuring chambers were transferred onto a Nikon Eclipse TE2000-U microscope equipped with a fluorescence detection system (IonOptix). Ca^2+ transient values were recorded according to the corresponding FRET experiments. F340/F380 values in Fura2-AM experiments were calculated from the ratios of 510 nm emission light measured at 340 and 380 nm excitations.

The test system of data set [3] is cardiomyocytes (NRVMs). In words: Oxygen consumption rate of cardiomyocytes (Seahorse Mito Stress Test). The data set is classed as cell-based, neonatal rat. Conditions: 24 h treatment; vs untreated control; FIG. 12. The procedure: OCR detection of cardiomyocytes was conducted with the Seahorse Xfe 24 analyzer (Agilent, Santa Clara, USA). Cardiomyocytes were seeded at a density of 8×10^4/well in a special Seahorse 24-well plate (102342-100, Seahorse). After treating with hCT1, PE and drug for 24 h, the medium was replaced with XF medium containing 10 mM D-(+)-glucose (G7021, Sigma-Aldrich), and 1 mM sodium pyruvate (11360070, Thermo Fisher). The plates were placed in a CO2-free 37 °C incubator for an hour before the measurement. A Seahorse XF Cell Mito Stress Test Kit (103015-100, Seahorse) was used for detection. The basal respiration of the NRVMs was detected, and ATP-linked OCR was analyzed after treatment with 1 μM oligomycin (ATP synthase inhibitor). Then, the uncoupling agent carbonyl [COMPOUND LEFT OUT] 4-(trifluoromethoxy) phenylhydrazone (FCCP) 0.5 μM was injected to detect maximal respiration. Finally, rotenone and antimycin A (AR) were used to abolish mitochondrial respiration by inhibiting complexes I and III, respectively.

Data set [4] concerns cardiomyocytes. In words: Overall observation on remodeling of treated cardiomyocytes. It counts as cell-based.
For data set [5], the system named is Cyclin D1/CDK4. To be noted: role: inhibitor; cited from earlier work.
The subject of data set [6] is CDK6. To be noted: role: inhibitor; cited from earlier work.
The subject of data set [7] is Rb phosphorylation. To be noted: cited from earlier work.
Data set [8] has as its system aurora kinase B. In words: pAurkB S727 immunofluorescence and remodeling in NRVM. It counts as cell-based, neonatal rat. To be noted: PE 100 μM. As for the experimental part:
Immunofluorescence was performed to validate and assess the effect of aurora B kinase inhibitor on cardiomyocyte remodeling. NRVMs were plated at a density of 2.5×10^4 cells onto 25 mm diameter collagen coated coverslip. Primary cardiomyocytes were incubated with control serum-free medium (Ctrl, SF medium), hCT1 (0.5 nM), PE (100 μM), AZD1152-HQPA (1.5 μM) and assessed for aurora kinase B activation using pAurkB s727 antibody staining. The cells were treated with a combination of PE and AZD1152 HQPA where the cells were stimulated with the drug for 4 hours following the PE treatment for 24 hours.
Post treatment, the cells were washed, fixed, and were subjected to sequential staining of primary antibodies a Actinin and phospho-AurkB (S727). The images were acquired using the Zeiss AxioVision SE64 Imaging software and analyzed using the ImageJ2 software. Immunofluorescence was used to detect α-actinin, pAurkb S727, and nuclei were stained with DAPI.

Data set [9] has as its system phospho-Histone 3 (Ser10). Nature of the data set: phospho-Histone 3 (pH3 Ser10) staining in NRVM. It counts as cell-based, neonatal rat. To be noted: PE. The procedure: A one-way ANOVA test performed to assess statistical significance across treatment groups.
The effect of AZD1152-HQPA on cardiac remodeling was further validated using the phospho-Histone 3 (pH3 Ser10) staining which is the downstream target of aurora kinase B. The NRVMs were plated at a density of 2.5×10^4 cells onto 25 mm diameter collagen coated coverslip. The cells were treated with controls (hCT1, PE), AZD1152-HQPA followed by a combination of PE and AZD1152-HQPA.
Post treatment, the cells were washed, fixed, and were subjected to sequential staining of primary antibodies a Actinin and phospho-Histone 3 (Ser10). The images were acquired using the Zeiss AxioVision SE64 Imaging software and analyzed using the ImageJ software. […] The data are represented as Mean±Standard deviation.

In data set [10] the test system is phenylephrine induced left ventricular hypertrophy. To be noted: LV; HF markers; cited from earlier work.
In data set [11] the test system is cardiac fibrosis. To be noted: phenylephrine, reported; cited from earlier work.

Structures are written as SMILES.

`CCN1CCN(Cc2ccc(Nc3ncc(F)c(-c4cc(F)c5nc(C)n(C(C)C)c5c4)n3)nc2)CC1` [LY2835219]: the CDK4 activation entry in [1] (LY2835219 1.5 μM) was “inhibited CDK4 activation”. In data set [1] (drug for 4 hr following PE treatment for 24 hours), the “pathological effect of PE” value is reported as “able to reverse the pathological effect of PE”. Further, in [2] (compared to control, FIG. 11), the “area under the curve (AUC) of calcium transient” value is “increased AUC compared to control” and the calcium transient levels result is “increase in calcium transient levels compared to control”. For the same compound, in data set [2], the “contractility / contractile function” value was “improved contractility by modest increase in peak calcium transient levels and AUC with modest decrease in time to attain those peak levels”. Moreover, in [3], the “oxygen consumption rate (OCR)” value is reported as “increase the rate of oxygen consumption”. Also, the cardiomyocyte remodeling result in data set [4] was “adaptive and compensatory remodeling that resembles a physiologic growth response, adding sarcomeres in series”. Moreover, the “inhibition of Cyclin D1/CDK4” value in data set [5] is given as “low nanomolar potency”. Besides, the “inhibition of CDK6” value in [6] is listed as “low nanomolar potency”. Also, in data set [7], the Rb phosphorylation result is listed as “inhibits Rb phosphorylation” and the cell cycle arrest result is listed as “G1 arrest”.

With `CNC[C@H](O)c1cccc(O)c1` [PE, phenylephrine], in [8], the AurkB activation result was “AurkB activation” and the cardiomyocyte remodeling entry was “concentric hypertrophic remodeling was observed”. Also, the “pH3 Ser10 staining” value in [9] is given as “Increased pH3 Ser10 staining”. Further, in [1] (PE 100 μM), the CDK4 activation entry is “CDK4 activation” and the cardiomyocyte remodeling result is “concentric hypertrophic remodeling was observed”. In addition, in data set [2] (compared to control, FIG. 11), the “area under the curve (AUC) of calcium transient” value is “much higher AUC”, the calcium transient levels entry is on record as “aberrant increase calcium transient levels” and the “time to peak calcium transient” value is recorded as “decreased time to peak calcium transient”. Moreover, the “contractility / contractile function” value in [2] was “defective contractile function of cardiomyocytes”. In addition, the “oxygen consumption rate (OCR)” value in data set [3] is listed as “reduced oxygen consumption rate”. In addition, the “effect of phenylephrine on left ventricle (background)” value in data set [10] was “myocardial hypertrophy of the LV, increased LV weight, systolic dysfunction, and increased expression of HF markers atrial natriuretic peptide and brain natriuretic peptide”. Moreover, in [11], the “pathways involved in cardiac fibrosis (background)” value is given as “stimulate pathways involved in cardiac fibrosis”.
